Assay results as given in patent US20180161262A1, “Cosmetic Method and Dermatological Topical Agent for Use Therein, Migration Imparting Agent, and Method for Screening Components for Use in Cosmetic Method for Improving Skin State” (ROHTO PHARMACEUTICAL CO., LTD., priority 2015, published 2018).

Legend:
[1] = tested on: human adipose-derived stem cells; test: Confirmation test for migration imparting effect (96-well Boyden chamber, Calcein-AM fluorescence); format: cell-based; details: 20 hours; for Migration imparting effect, Ratio to blank (%): blank = 100%
Description: A medium of human adipose-derived stem cells (manufactured by Kurabo Industries Ltd.; cultured to the 7th passage in STEMLIFE medium [provided by Lifeline Cell Technology]) was replaced with DMEM/F12 medium (manufactured by Life Technologies Corp.), followed by culture for additional 20 hours.
(§1) Meanwhile, a medium in which a sample to be examined for the presence or absence of the migration imparting effect was dissolved at a predetermined concentration was prepared by using 0.1% by volume of fetal bovine serum (nutritional source). Also, DMEM/F12 medium containing 0.1% by volume of fetal bovine serum and not containing the sample (blank) was provided.
Then, the prepared medium was supplied at 200 μL per well to lower wells of a 96-well Boyden chamber (manufactured by Corning Inc., model number: 3384) having a membrane pore size of 8 μm. Also, the human adipose-derived stem cells cultured for 20 hours in the DMEM/F12 medium were inoculated at 30000 cells per well to upper wells of the Boyden chamber and cultured at 37° C. for 20 hours under 5% by volume of CO2.
1.2 μL/mL of Calcein-AM (fluorescent dye, manufactured by Molecular Probes/Thermo Fisher Scientific Inc.) dissolved at 1.66 mg/mL in DMSO (manufactured by Wako Pure Chemical Industries, Ltd.) was added to 10× cell dissociation solution (cell dissolution solution, manufactured by Trevigen Inc.) diluted 10-fold with sterilized water to thereby prepare an index solution for fluorescence emission having the correlation between the number of human adipose-derived stem cells and the strength of fluorescence emission.
The media in the upper and lower wells were taken out of the Boyden chamber and washed with PBS(−) (manufactured by Dojindo Laboratories), and then, the index solution for fluorescence emission was supplied at 100 μL per well to the lower wells and incubated at 37° C. for 1 hour under 5% by volume of CO2 in the dark. Then, the index solution in the lower wells after the incubation was transferred to a 96-well plate (manufactured by Greiner Bio One International GmbH) having black walls and a transparent bottom, and fluorescence intensity (excitation wavelength: 485 nm, detection wavelength: 520 nm) was measured. Each test was conducted in triplicate (n=3).
Specifically, since there is a correlation between the number of human adipose-derived stem cells and the strength of fluorescence emission as mentioned above, the presence or absence of the migration imparting effect was confirmed by determining increase or decrease in the fluorescence intensity of the lower wells by using the fluorescence intensity obtained by the assay of the blank as a reference (100%). As for the determination of the presence or absence of migration, the “migration imparting effect was present” was determined provided that the rate of stem cell migration (rate of increase with respect to the blank) was 5% or more (score + or more) according to the score shown in Table 1 below.
(§2) It is known that the doubling time of the present cells is usually 24 hours or longer, and in the confirmation test for the migration imparting effect, the human adipose-derived stem cells are taken out 20 hours after inoculation and washed, followed by the measurement of the strength of fluorescence emission. Accordingly, in this test, the growth effect of the human adipose-derived stem cells themselves is not included, and only increase in cells by migration is evaluated. On the other hand, in the confirmation test for the growth promoting effect, absorbance 72 hours after inoculation of the human adipose-derived stein cells is measured, and increase in cells by self-growth is simply evaluated.

[2] = tested on: human adipose-derived stem cells; test: Confirmation test for growth promoting effect (WST-8 method, Cell Counting Kit-8); format: cell-based; details: 72 hours; for Growth promoting effect, Ratio to blank (%): blank = 100%
Description: as §1, with “A” for “Meanwhile, a”, “using DMEM/F12 medium (manufactured by Life Technologies Corp.) containing” for “using”, “serum.” for “serum (nutritional source).”, “unsupplemented with” for “and not containing”
Then, human adipose-derived stem cells (manufactured by Kurabo Industries Ltd.; cultured to the 5th passage in STEMLIFE medium [provided by Lifeline Cell Technology]) were inoculated at 3000 cells per well with the prepared medium to a 96-well plate and cultured at 37° C. for 72 hours under 5% by volume of CO2, and then, respiratory activity of the cells was measured as an index for whether or not the cells were activated, by the WST-8 method using Cell Counting Kit-8 (manufactured by Dojindo Laboratories). Specifically, after the human adipose-derived stem cells were cultured for 72 hours, the medium of each well was replaced with DMEM/F12 medium containing Cell Counting Kit-8, which was then incubated at 37° C. for 4 hours under 5% by volume of CO2 in the dark, and then, absorbance at a wavelength of 450 nm (control wavelength: 630 nm) was measured. Each test was conducted in triplicate (n=3).
Specifically, the degree of the respiratory activity (proportional to the number of cells) was measured as the absorbance (wavelength: 450 nm) of the solution by using the WST-8 reagent. Then, the presence or absence of the growth promoting effect was confirmed by determining increase or decrease in the absorbance of the sample-containing prepared medium by using the absorbance obtained by the assay of the blank medium as a reference (100%). As for the determination of the presence or absence of growth promotion, the “stem cell growth promoting effect was present” was determined provided that the rate of stem cell growth (rate of growth with respect to the blank) was 5% or more (score + or more) according to the score shown in Table 2 below.
as §2

[3] = applied concentration 0.01 mg/mL
[4] = applied concentration 0.1 mg/mL
[5] = applied concentration 1.0 mg/mL
[6] = applied concentration 0.001 mg/mL

Row | Substance | Migration imparting effect, Evaluation (score) [1, 3] | Migration imparting effect, Ratio to blank (%) [1, 3] [%] | Migration imparting effect, Evaluation (score) [1, 4] | Migration imparting effect, Ratio to blank (%) [1, 4] [%] | Migration imparting effect, Evaluation (score) [1, 5] | Migration imparting effect, Ratio to blank (%) [1, 5] [%] | Growth promoting effect, Evaluation (score) [2, 3] | Growth promoting effect, Ratio to blank (%) [2, 3] [%] | Growth promoting effect, Evaluation (score) [2, 4] | Growth promoting effect, Ratio to blank (%) [2, 4] [%] | Growth promoting effect, Evaluation (score) [2, 5] | Growth promoting effect, Ratio to blank (%) [2, 5] [%] | Migration imparting effect, Evaluation (score) [1, 6] | Migration imparting effect, Ratio to blank (%) [1, 6] [%]
1 | caprooyl tetrapeptide-3 | + (105 or more and less than 120) | 109 | +++ (130 or more and less than 140) | 133 | +++ (130 or more and less than 140) | 132 | ++ (120 or more and less than 130) | 120 | ++ (120 or more and less than 130) | 123 | + (105 or more and less than 120) | 117 | – | –
2 | copper tripeptide-1 | ++ (120 or more and less than 130) | 125 | +++ (130 or more and less than 140) | 131 | – | – | +++ (130 or more and less than 140) | 130 | ++++ (140 or more) | 160 | – | – | +++ (130 or more and less than 140) | 130
